# Laboratory results published in ChEMBL document CHEMBL5375988, “AcGlcAs: A Novel P53-Targeting Arsenical with Potent Cellular Uptake and Cancer Cell Selectivity” (J Med Chem, 2023).
# The source made the active and inactive calls. The calls are words filed in the database; no cut-off is given here.
# How the values were obtained:
# NB-4 [1] = experiment: Induction of granulocytic differentiation in human NB4 cells assessed as increase in CD11b expression at 3 uM incubated for 1 hrs followed by replacement with fresh culture medium for 48 hrs by flow cytometry analysis (reference value: 1.44%); format: functional
# [2] = Clearance in mouse assessed as hepatic blood flow; format: ADME, tissue-based
# U-937 [3] = experiment: Induction of intrinsic apoptosis in human U-937 cells overexpressing p53-V272M mutant assessed as upregulation of BAX gene expression by RT-qPCR analysis; format: functional, cell-based
# [4] = target: T1, PML-RARalpha (Homo sapiens) (UniProt P10276+P29590); experiment: Induction of PML/RARalpha (unknown origin) degradation overexpressed in HEK293T cells assessed as residual protein level at 2 to 6 uM incubated for 1 hrs followed by replacement with fresh culture medium and measured after 16 hrs by Western blot analysis; format: cell-based; conditions: dose 2-6 µM
# T1 sequence (P10276 whole entry, looked up): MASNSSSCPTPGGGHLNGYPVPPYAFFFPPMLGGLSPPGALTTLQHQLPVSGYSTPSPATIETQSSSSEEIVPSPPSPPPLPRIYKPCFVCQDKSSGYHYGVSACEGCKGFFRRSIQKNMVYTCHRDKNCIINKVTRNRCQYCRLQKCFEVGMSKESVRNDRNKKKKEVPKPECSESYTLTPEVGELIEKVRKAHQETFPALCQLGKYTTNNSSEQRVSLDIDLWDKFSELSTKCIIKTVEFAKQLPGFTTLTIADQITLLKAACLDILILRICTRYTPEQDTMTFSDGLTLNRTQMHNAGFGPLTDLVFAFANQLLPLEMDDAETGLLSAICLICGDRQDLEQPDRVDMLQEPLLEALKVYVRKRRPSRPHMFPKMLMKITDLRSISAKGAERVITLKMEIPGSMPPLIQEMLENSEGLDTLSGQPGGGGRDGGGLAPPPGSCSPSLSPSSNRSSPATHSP
# T1 sequence (P29590 whole entry, looked up): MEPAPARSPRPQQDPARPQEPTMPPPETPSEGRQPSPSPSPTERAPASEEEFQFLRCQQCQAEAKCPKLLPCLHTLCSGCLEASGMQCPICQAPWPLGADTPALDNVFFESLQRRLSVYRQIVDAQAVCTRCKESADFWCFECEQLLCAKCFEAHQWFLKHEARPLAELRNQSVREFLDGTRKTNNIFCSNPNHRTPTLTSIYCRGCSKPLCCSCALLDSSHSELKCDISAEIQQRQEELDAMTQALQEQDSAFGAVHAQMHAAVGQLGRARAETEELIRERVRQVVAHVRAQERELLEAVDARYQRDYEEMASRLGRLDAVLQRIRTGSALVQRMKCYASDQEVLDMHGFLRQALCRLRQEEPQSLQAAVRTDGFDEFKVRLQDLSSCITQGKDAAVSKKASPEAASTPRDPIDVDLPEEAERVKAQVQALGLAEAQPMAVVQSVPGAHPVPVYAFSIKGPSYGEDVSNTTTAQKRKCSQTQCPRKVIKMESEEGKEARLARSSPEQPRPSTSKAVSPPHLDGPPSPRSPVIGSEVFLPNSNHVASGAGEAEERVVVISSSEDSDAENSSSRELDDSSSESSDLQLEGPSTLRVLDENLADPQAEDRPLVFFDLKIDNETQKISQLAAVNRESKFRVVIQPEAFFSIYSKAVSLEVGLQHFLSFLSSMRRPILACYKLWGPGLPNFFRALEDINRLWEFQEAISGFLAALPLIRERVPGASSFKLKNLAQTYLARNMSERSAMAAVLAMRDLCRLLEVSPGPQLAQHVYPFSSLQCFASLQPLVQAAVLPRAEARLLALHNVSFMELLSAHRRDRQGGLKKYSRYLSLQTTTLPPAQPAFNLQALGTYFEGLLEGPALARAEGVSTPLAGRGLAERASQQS
# U-937 [5] = experiment: Induction of apoptosis in human U-937 cells harboring p53-V272M mutant assessed as increase in early apoptotic cells at 0.5 to 8 uM pretreated for 1 hr followed by culturing in fresh medium for 24 hrs by Annexin V-FITC/7AAD staining based flow cytometry analysis; format: functional, cell-based; conditions: dose 0.5-8 µM
# HL-60 [6] = experiment: Upregulation of MDM2 protein expression in human HL-60 cells overexpressing p53-V272M mutant pretreated for 1 hr followed by culturing in fresh medium for 16 hrs by Western blot analysis; format: functional, cell-based
# U-937 [7] = experiment: Induction of senescence in human U-937 cells overexpressing p53-V272M mutant assessed as upregulation of CDKN1A gene expression by RT-qPCR analysis; format: functional, cell-based
# NCI-H1299 [8] = experiment: Upregulation of PUMA protein expression in human NCI-H1299 cells overexpressing p53-V272M mutant pretreated for 1 hr followed by culturing in fresh medium for 16 hrs by Western blot analysis; format: functional, cell-based
# [9] = test system: Cellular tumor antigen p53 (Homo sapiens), P04637 [V272M]; experiment: Rescue of p53-V272M mutant transcriptional activity on PUMA promoter in human NCI-H1299 cells assessed as fold change in transcriptional activity at 10 uM pretreated for 10 mins to1 hr followed by replacement with fresh culture media and measured after 24 hrs by firefly/renilla based luciferase reporter assay; format: cell-based; conditions: filed as activator, time 10-60 min
# [10] = target: T1, PML-RARalpha (Homo sapiens); experiment: Induction of PML/RARalpha degradation in human NB4 cells assessed as residual protein level at 0.1 uM incubated for 1 hrs followed by replacement with fresh culture medium and measured after 16 hrs by Western blot analysis (reference value: 1); format: cell-based
# [11] = Plasma stability in human assessed as half life at […] measured upto 120 mins by LC-MS analysis; format: ADME, cell-free
# [12] = Drug accumulation in ICR mouse kidney at 10 mg/kg, iv measured upto 24 hrs by ICP-MS analysis; format: ADME, organism-based; conditions: in vivo
# NCI-H1299 [13] = experiment: Upregulation of PUMA mRNA expression in human NCI-H1299 cells overexpressing p53-V272M mutant at 2 uM pretreated for 1 hr followed by culturing in fresh medium for 8 hrs by RT-qPCR analysis; format: functional, cell-based
# U-937 [14] = experiment: Induction of cell cycle arrest in human U-937 cells harboring p53-V272M mutant at 0.5 to 8 uM pretreated for 1 hr followed by culturing in fresh medium for 24 hrs by RNase/PI staining based flow cytometry analysis; format: functional; conditions: dose 0.5-8 µM
# [15] = target: T1, PML-RARalpha (Homo sapiens); experiment: Induction of PML/RARalpha degradation in human NB4 cells assessed as appearance of large PML speckles characteristic of normal nuclear bodies at 3 uM incubated for 1 hrs followed by replacement with fresh culture medium and measured after 0.5 to 24 hrs by immunofluorescence analysis; format: cell-based
# [16] = test system: Cellular tumor antigen p53 (Homo sapiens), P04637 [V272M]; experiment: Restoration of p53-V272M mutant transcriptional activity on PUMA promoter in human NCI-H1299 cells at 10 uM pretreated with 20 to 40 uM N-ethylmaleimide for 30 mins followed by compound addition for 10 mins and further incubation in fresh medium for 24 hrs by firefly/renilla based luciferase reporter assay; format: cell-based
# U-937 [17] = experiment: Upregulation of p21 mRNA expression in human U-937 cells overexpressing p53-V272M mutant pretreated for 1 hr followed by culturing in fresh medium for 4 hrs by RT-qPCR analysis; format: functional, cell-based
# NB-4 [18] = experiment: Induction of apoptosis in human NB4 cells assessed as early apoptotic cells at 3 uM preincubated for 1 hrs followed by replacement with fresh culture medium and measured after 24 hrs by Annexin V-FITC/7AAD staining based flow cytometry assay (reference value: 2.15%); format: functional
# U-937 [19] = experiment: Antitumor activity against luciferase transduced human U-937 cells harboring p53 V272M mutant xenografted in M-NSG mouse assessed as median survival at 10 mg/kg, iv administered daily for 11 days (reference value: 11 day); format: functional
# [20] = Drug uptake in HFL1 cells at 10 uM measured after 10 mins by ICP-MS analysis; format: ADME, cell-based; conditions: human, hfl1, 10 min
# [21] = test system: Cellular tumor antigen p53 (Homo sapiens), P04637 [V272M]; experiment: Rescue of p53-V272M mutant transcriptional activity on PUMA promoter in human NCI-H1299 cells at 0.3 to 10 uM pretreated for 10 mins to1 hr followed by replacement with fresh culture media and measured after 24 hrs by firefly/renilla based luciferase reporter assay; format: cell-based; conditions: filed as activator, dose 0.3-10 µM, time 10-60 min
# [22] = target: T1, PML-RARalpha (Homo sapiens); experiment: Induction of PML/RARalpha degradation in human NB4 cells assessed as residual protein level at 0.3 uM incubated for 1 hrs followed by replacement with fresh culture medium and measured after 16 hrs by Western blot analysis (reference value: 1); format: cell-based
# NB-4 [23] = experiment: Induction of apoptosis in human NB4 cells assessed as necrotic cells at 3 uM preincubated for 1 hrs followed by replacement with fresh culture medium and measured after 24 hrs by Annexin V-FITC/7AAD staining based flow cytometry assay (reference value: 0.16%); format: functional
# [24] = Drug uptake in human MDA-MB-231 cells at 10 uM measured after 10 mins by ICP-MS analysis; format: ADME, cell-based; conditions: mda-mb-231, 10 min
# U-937 [25] = experiment: Upregulation of MDM2 protein expression in human U-937 cells overexpressing p53-V272M mutant at 0.1 to 0.5 uM pretreated for 1 hr followed by culturing in fresh medium for 16 hrs by Western blot analysis; format: functional, cell-based; conditions: dose 0.1-0.5 µM
# [26] = target: T1, PML-RARalpha (Homo sapiens); experiment: Induction of PML/RARalpha degradation in human NB4 cells assessed as downregulation of DLK1 mRNA expression incubated for 1 hrs followed by replacement with fresh culture medium for 6 hrs by RT-qPCR analysis; format: cell-based; conditions: dose 0.3-3 µM
# HL-60 [27] = experiment: Upregulation of CDKN1A mRNA expression in human HL-60 cells overexpressing p53-V272M mutant at 2 uM pretreated for 1 hr followed by culturing in fresh medium for 8 hrs by RT-qPCR analysis; format: functional, cell-based
# U-937 [28] = experiment: Upregulation of PUMA mRNA expression in human U-937 cells overexpressing p53-V272M mutant pretreated for 1 hr followed by culturing in fresh medium for 4 hrs by RT-qPCR analysis; format: functional, cell-based
# NB-4 [29] = experiment: Induction of apoptosis in human NB4 cells assessed as late apoptotic cells at 27 uM preincubated for 1 hrs followed by replacement with fresh culture medium and measured after 24 hrs by Annexin V-FITC/7AAD staining based flow cytometry assay (reference value: 3.71%); format: functional
# [30] = Chemical stability of compound in PBS at 10 uM incubated for 1 hr by LC-MS analysis; format: physicochemical; conditions: buffer
# [31] = Plasma stability in mouse assessed as half life at […] measured upto 120 mins by LC-MS analysis; format: ADME, cell-free
compound,measurement,setting,value
CC(=O)OC[C@H]1O[C@@H](S[As]2SCCS2)[C@H](OC(C)=O)[C@@H](OC(C)=O)[C@@H]1OC(C)=O,Activity,NB-4 [1],32.9%
same,QH,[2],90 mL/min/kg
same,Activity,U-937 [3],Active
same,Activity,[4],Active
same,Activity,U-937 [5],Active
same,Activity,HL-60 [6],Active
same,Activity,U-937 [7],Active
same,Activity,NCI-H1299 [8],Active
same,fold change (FC),[9],112
same,Activity,[10],0.55
same,half-life,[11],16.1 min
same,Drug uptake,[12],Active
same,Activity,NCI-H1299 [13],Active
same,Activity,U-937 [14],Active
same,Activity,[15],Active
same,Activity,[16],inactive
same,Activity,U-937 [17],Active
same,Activity,NB-4 [18],4.21%
same,MST,U-937 [19],16 days
same,Drug uptake,[20],Active
same,Activity,[21],Active
same,Activity,[22],0.42
same,Activity,NB-4 [23],0.27%
same,Drug uptake,[24],Active
same,Activity,U-937 [25],Active
same,Activity,[26],Dose-Dependent Effect
same,Activity,HL-60 [27],Active
same,Activity,U-937 [28],Active
same,Activity,NB-4 [29],29%
same,Stability,[30],Stable
same,half-life,[31],13.4 min
